# Measured values taken from US10195186B2.
# How the values were obtained:
# [1] = target: human sortilin (S-18 cells) (Homo sapiens (Human), UniProt Q99523); assay: Endogenous PGRN endocytosis assay (PGRN ELISA of media); format: cell-based; settings: PGRN allowed to accumulate 24 hrs, compounds added day 2, further 24 hrs
# Protocol: Stable cell lines expressing human sortilin (S-18) were generated by transfecting HEK293 cells with a human sortilin expression vector, followed by few rounds of passage with the appropriate selection agent.
# On day1, S-18 cells are seeded in a 96 well plate. After 24 hrs, media is completely replaced with either media or one of the test compounds. All compounds were tested at 10 μM unless otherwise specified. Media is collected on day 3 and analyzed using PGRN ELISA (R&D). Cell viability is assessed by Cell TiterGlo (ProMega) to evaluate cytotoxic effect of the compounds.
# On day 2, the compounds are added to the cells and incubated for a further 24 hrs, when the media is harvested and PGRN levels analyzed using ELISA kit.
# hSortilin = hSortilin (Homo sapiens (Human), UniProt Q99523); assay: hSortilin affinity assay: displacement of 3H-neurotensin binding, SPA format; settings: read-out: hSortilin NTS Binding, Inhibition at 50 μM
# Sequence of hSortilin (Q99523 34-755): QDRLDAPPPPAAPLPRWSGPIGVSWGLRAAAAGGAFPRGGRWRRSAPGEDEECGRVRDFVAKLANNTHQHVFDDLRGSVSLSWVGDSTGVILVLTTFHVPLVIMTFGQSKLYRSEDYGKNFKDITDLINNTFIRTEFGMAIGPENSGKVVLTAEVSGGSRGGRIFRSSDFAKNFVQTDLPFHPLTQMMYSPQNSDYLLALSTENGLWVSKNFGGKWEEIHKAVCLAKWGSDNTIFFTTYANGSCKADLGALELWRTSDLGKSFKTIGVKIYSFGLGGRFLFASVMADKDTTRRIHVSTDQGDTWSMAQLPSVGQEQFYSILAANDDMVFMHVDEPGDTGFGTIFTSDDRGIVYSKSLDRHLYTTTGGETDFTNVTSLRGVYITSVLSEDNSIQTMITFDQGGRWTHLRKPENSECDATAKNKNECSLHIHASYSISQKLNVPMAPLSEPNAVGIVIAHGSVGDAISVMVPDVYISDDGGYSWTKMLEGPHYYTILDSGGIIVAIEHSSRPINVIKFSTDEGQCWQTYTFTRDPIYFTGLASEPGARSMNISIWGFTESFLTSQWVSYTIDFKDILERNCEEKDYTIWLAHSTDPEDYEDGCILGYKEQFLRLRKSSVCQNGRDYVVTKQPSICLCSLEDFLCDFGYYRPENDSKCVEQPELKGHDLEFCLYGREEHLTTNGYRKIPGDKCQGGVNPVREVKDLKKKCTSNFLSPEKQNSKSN
# Sequence of human sortilin (S-18 cells) (Q99523 78-831): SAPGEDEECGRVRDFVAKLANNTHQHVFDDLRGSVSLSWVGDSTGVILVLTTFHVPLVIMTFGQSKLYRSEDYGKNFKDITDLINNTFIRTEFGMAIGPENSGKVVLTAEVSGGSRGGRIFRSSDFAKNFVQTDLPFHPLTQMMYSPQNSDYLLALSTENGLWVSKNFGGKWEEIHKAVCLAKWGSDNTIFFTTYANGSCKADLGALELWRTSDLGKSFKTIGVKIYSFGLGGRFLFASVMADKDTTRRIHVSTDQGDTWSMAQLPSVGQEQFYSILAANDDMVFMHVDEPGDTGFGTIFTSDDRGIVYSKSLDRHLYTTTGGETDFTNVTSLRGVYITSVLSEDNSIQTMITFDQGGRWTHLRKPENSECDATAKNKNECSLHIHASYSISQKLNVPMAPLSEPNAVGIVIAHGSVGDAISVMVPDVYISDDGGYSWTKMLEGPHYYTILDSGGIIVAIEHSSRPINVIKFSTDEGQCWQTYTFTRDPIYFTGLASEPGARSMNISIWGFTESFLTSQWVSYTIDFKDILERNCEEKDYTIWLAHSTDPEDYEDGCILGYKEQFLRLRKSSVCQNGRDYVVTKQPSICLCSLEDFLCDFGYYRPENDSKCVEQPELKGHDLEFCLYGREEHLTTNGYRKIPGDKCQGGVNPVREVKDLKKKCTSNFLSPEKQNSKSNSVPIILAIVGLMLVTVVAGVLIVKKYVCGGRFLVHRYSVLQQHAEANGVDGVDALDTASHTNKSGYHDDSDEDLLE
inhibition at 50 µM (hSortilin) [%],Compound,"PGRN levels in cell culture media, competition paradigm (FIG. 1) [1]"
,"Cc1cccc(NC(=O)c2ccc(C(F)(F)F)cc2C(=O)O)n1 [Example 1, N-(6-Methyl-pyridin-2-yl)-5-trifluoromethyl-phthalamic acid]",increase in PGRN levels
64,"Cc1cccnc1NC(=O)c1ccc(Br)cc1C(=O)O [Example 27, 5-Bromo-N-(3-methyl-pyridin-2-yl)-phthalamic acid]",
70,"Cc1ccc(NC(=O)c2ccc(Br)cc2C(=O)O)cn1 [Example 31, 5-Bromo-N-(6-methyl-pyridin-3-yl)-phthalamic acid]",
,"scrambled neurotensin: scrambled neurotensin, sequence LIYPRNEYELRKP (SEQ ID NO:1); does not bind sortilin, negative control (Scrambled Human Neurotensin) [reference compound]",did not have any effect
